Test results taken from paper PMC11574021, “CEP192 localises mitotic Aurora-A activity by priming its interaction with TPX2” (The EMBO Journal, 2024).

Assays:
[1] = molecular target: T1, phosphorylated Aurora-A CAKD (Homo sapiens, UniProt O14965, C290A/C393A); assay: ADP-Glo kinase assay, kemptide substrate; assay type: biochemical; conditions: ADP-Glo, phosphorylated Aurora-A CAKD, kemptide; in words
T1 construct: 10 nM Aurora-A 122–403 C290A C393A phosphorylated protein; His (N, cleaved yes); made in house; host or cells: E. coli B834 (no lambda phosphatase)
T1 sequence (O14965 122-403 C290A/C393A): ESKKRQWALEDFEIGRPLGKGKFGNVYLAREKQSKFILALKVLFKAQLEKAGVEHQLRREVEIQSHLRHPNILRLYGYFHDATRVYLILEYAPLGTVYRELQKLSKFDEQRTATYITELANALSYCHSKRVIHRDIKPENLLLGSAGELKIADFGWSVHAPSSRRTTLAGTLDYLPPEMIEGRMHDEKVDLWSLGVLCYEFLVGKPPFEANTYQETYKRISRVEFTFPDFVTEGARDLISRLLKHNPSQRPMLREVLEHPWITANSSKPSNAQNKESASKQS
Summary of the method: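 Reactions started with 10 μM ATP and 100 μM kemptide, 60 min at room temperature, then ADP-Glo luminescence read-out. Control-subtracted signals from three repeats averaged and fitted to sigmoidal curves for IC50 and EC50.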

[2] = tested on: LATS2-pS83 in RPE1 p53-/- cells; assay: Immunofluorescence, LATS2-pS83 spindle pole signal intensity, RPE1 p53-/-; assay type: cell-based, Homo sapiens; conditions: Aurora-A inhibitor 30 min (500 nM)
Method: As noted in the figures, the following drugs were incubated with cells for 30 min at 37 °C: Aurora-B-i ZM447439 2 µM [10 mM], PLK1-I BI2536 1 µM [10 mM] and Aurora-A-i MLN8237 [5 mM] was used at 250 and 500 nM in U251 and RPE1 cells, respectively. Drugs were resuspended in DMSO to the stock concentrations indicated in square brackets. BI2536 (HY-50698), MLN8237 (HY-10971) and ZM447439 (HY-10128) were all purchased from MedChemExpress. For western blotting, a 20-min pre-treatment with proteasome inhibitor (20 µM MG-132, MerckMillipore, 47490 [20 mM]) was required prior to the addition of DMSO control or kinase inhibitors. This prevented mitotic exit as a consequence of checkpoint override following Aurora-A and Aurora-B inhibitor addition.
For siRNA depletion, 1 × 10^5 cells were seeded in six-well plates and transfected as described above for 48 h prior to fixation. For all other experiments, 2.5 × 10^5 cells were seeded in six-well plates and grown for 24 h before fixation. All cells were grown on 12 mm diameter glass coverslips (VWR, 631–1577). […]
For CEP192, LATS2-pS83, PCNT, PLK1 and γ-tubulin intensity, a 20-pixel diameter circle was centred over each centrosome and the intensity measured. […]

COc1cc(Nc2ncc3c(n2)-c2ccc(Cl)cc2C(c2c(F)cccc2OC)=NC3)ccc1C(=O)O [Alisertib]
effect on Aurora-A kinase activity [1]: fully inhibited activity
reduction of pS83 LATS2 levels [2]: 50%
reduction of pS83 LATS2 levels ([2]; listed as Aurora-A inhibition): about 50%
